Test [1] deals with T1, GSK3A (Homo sapiens, UniProt P49840). In words: HotSpot radiometric […]-ATP kinase assay. Conditions: remaining activity, mean of two replicates. It is filed as biochemical.
Target sequence in this assay (P49840 2-483): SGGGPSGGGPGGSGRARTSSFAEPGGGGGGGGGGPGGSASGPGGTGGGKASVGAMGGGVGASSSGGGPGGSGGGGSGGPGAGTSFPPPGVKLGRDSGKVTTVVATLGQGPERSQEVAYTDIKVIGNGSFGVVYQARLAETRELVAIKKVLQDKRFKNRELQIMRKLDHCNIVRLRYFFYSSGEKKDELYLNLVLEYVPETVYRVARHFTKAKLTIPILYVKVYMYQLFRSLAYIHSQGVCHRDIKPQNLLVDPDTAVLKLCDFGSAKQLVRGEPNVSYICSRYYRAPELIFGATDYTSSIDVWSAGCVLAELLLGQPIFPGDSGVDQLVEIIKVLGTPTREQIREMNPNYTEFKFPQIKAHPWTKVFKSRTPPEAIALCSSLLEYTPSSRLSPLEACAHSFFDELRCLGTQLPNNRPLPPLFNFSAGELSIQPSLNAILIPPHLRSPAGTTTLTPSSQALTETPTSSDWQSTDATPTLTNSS
Test [2] concerns the target T2, GSK3B (Homo sapiens, UniProt P49841). In words: HotSpot radiometric […]-ATP kinase assay. It is filed as biochemical. The settings on record: remaining activity, mean of two replicates.
For test [3], the target named is T3, PLK2 (Homo sapiens, UniProt Q9NYY3). In words: HotSpot radiometric […]-ATP kinase assay. The settings on record: remaining activity, mean of two replicates. It is filed as biochemical.
In another test the target is CSNK1E (Homo sapiens, UniProt P49674). In words: biochemical. Conditions: read-out: % of control remaining.
In test [4] the target is GSK3A (NanoLuc fusion, HEK293 cells) (Homo sapiens, UniProt P49840). In words: NanoBRET target engagement, tracer displacement, intact cells. It counts as cell-based. On the technique in general: In BRET a luciferase serves as donor, and the signal depends on an acceptor being close.
In test [5] the target is T2, GSK3B. In words: HotSpot radiometric […]-ATP kinase assay. It counts as biochemical.
The target of the next test is PARP1 (Homo sapiens, UniProt P09874). In words: BPS PARP assay kit, biotin-NAD+ luminescence. It is filed as biochemical. Conditions: read-out: % inhibition at 10 μM.
The target of test [6] is T3, PLK2. In words: HotSpot radiometric […]-ATP kinase assay. It counts as biochemical.
Test [7] has as its target PLK2 (NanoLuc fusion, HEK293 cells) (Homo sapiens, UniProt Q9NYY3). In words: NanoBRET target engagement, tracer displacement, intact cells. It counts as cell-based.
The target in another test is PARP2 (Homo sapiens, UniProt Q9UGN5). In words: BPS PARP assay kit, biotin-NAD+ luminescence. It is filed as biochemical. Conditions: read-out: % inhibition at 10 μM.
Test [8] has as its target T1, GSK3A. In words: HotSpot radiometric […]-ATP kinase assay. It is filed as biochemical.
Target sequence in this assay (P49840 2-483): as above
The target of test [9] is T1, GSK3A. In words: biochemical. The settings on record: read-out: % of control remaining.
Target sequence in this assay (P49840 whole entry): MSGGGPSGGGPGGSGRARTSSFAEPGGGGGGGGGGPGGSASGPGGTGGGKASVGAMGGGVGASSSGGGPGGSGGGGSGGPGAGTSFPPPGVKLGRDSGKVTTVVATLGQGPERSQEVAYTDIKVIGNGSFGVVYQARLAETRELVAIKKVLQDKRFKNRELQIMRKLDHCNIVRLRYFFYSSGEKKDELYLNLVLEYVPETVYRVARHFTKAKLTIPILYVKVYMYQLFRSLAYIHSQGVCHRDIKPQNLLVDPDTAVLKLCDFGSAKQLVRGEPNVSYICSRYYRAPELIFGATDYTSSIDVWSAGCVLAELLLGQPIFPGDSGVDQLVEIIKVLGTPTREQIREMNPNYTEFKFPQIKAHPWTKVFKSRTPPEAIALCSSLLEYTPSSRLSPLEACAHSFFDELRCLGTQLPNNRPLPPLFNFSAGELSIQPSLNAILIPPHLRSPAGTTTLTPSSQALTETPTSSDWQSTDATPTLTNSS
The target of test [10] is T2, GSK3B. In words: biochemical. Conditions: read-out: % of control remaining.
Test [11] deals with T3, PLK2. In words: biochemical. The settings on record: read-out: % of control remaining.

Structures are written as SMILES.

T2 sequence (P49841 whole entry): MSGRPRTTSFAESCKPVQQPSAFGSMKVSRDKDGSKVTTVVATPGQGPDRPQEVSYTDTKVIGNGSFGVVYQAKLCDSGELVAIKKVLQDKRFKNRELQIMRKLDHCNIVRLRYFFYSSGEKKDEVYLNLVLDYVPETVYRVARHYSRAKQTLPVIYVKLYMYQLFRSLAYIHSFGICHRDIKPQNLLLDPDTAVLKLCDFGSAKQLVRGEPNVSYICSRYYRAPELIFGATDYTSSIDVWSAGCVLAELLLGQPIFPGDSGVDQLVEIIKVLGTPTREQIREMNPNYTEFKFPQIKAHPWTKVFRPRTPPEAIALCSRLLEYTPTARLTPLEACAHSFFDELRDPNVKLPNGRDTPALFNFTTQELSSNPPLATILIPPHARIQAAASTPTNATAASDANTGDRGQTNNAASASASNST
T3 sequence (Q9NYY3 whole entry): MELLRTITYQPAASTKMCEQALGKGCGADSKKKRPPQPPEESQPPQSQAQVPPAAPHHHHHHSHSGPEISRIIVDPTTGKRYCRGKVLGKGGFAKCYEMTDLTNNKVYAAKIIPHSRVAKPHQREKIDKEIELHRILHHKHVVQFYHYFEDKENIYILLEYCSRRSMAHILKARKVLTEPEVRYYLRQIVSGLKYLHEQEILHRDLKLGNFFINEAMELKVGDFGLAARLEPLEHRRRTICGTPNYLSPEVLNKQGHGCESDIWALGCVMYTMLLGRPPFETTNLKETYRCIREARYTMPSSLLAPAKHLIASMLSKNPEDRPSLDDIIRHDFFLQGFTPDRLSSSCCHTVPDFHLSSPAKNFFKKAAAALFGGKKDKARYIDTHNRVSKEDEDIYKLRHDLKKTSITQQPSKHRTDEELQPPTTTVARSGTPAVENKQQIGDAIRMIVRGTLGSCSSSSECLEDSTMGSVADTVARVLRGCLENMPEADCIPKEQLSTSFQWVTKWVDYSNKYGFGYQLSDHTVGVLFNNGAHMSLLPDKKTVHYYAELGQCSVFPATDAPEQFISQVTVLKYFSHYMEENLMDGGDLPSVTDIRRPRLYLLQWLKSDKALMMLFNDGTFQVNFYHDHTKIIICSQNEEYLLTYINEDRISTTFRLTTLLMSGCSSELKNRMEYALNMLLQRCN
CSNK1E, sequence (P49674 whole entry, the tested form may be a part): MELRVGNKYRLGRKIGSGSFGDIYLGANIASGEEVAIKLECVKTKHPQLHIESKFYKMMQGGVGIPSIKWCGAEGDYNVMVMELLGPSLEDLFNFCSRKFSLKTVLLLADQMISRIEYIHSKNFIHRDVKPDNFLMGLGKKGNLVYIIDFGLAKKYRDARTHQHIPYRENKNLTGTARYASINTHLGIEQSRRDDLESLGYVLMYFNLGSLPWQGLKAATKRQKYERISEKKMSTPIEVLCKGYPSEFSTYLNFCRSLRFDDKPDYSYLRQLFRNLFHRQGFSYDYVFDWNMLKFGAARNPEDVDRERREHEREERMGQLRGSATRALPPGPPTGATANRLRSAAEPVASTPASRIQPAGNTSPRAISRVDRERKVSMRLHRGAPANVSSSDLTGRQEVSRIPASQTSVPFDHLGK
PARP1, sequence (P09874 2-1014): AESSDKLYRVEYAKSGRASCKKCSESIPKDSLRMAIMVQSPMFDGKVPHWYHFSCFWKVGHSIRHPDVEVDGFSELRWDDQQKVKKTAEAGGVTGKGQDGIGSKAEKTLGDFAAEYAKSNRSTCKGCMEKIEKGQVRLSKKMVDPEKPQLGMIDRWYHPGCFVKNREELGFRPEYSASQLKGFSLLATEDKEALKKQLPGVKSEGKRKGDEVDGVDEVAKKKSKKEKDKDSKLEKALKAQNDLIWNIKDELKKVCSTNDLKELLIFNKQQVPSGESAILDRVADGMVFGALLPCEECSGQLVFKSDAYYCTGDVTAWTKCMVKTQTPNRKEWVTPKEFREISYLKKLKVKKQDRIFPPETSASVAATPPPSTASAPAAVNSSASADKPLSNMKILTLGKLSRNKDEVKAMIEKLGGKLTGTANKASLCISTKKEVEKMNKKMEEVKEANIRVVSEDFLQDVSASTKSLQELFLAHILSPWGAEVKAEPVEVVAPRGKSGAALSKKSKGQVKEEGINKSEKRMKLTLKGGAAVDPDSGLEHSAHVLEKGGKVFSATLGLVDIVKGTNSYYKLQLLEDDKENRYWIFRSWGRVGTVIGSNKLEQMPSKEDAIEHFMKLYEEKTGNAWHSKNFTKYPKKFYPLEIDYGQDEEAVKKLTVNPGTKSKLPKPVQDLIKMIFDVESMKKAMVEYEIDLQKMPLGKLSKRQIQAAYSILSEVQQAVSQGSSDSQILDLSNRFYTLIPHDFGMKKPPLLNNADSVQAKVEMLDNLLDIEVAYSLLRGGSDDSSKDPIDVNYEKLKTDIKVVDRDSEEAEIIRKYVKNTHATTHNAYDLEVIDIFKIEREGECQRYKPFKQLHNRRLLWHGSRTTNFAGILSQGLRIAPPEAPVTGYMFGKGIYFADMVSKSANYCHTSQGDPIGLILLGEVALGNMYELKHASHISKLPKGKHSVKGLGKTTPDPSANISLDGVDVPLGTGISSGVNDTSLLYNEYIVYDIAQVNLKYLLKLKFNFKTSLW
PLK2 (NanoLuc fusion, HEK293 cells), sequence (Q9NYY3 whole entry, the tested form may be a part): as the sequence (Q9NYY3 whole entry) above
PARP2, sequence (Q9UGN5 whole entry): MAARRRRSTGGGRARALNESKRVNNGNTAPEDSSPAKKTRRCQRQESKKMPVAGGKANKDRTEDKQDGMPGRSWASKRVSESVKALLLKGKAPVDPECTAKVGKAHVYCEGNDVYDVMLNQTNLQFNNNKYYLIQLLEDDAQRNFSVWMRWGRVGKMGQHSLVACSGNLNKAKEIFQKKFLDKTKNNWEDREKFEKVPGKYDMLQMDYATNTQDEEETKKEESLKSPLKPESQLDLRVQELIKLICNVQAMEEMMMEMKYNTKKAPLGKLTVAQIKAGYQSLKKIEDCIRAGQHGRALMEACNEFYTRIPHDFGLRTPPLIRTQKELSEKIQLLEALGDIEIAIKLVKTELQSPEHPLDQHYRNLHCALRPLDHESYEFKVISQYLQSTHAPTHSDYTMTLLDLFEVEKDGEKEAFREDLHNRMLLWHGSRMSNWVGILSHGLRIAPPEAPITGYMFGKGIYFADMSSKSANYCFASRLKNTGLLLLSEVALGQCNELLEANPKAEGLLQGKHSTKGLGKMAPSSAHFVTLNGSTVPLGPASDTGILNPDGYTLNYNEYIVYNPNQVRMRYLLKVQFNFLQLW
GSK3A (NanoLuc fusion, HEK293 cells), sequence (P49840 2-483): as the sequence (P49840 2-483) above

For the compound `CNCc1ccc(-c2[nH]c3cc(F)cc4c3c2CCNC4=O)cc1` [rucaparib], the “Enzyme activity (%) at 1 μM” value at GSK3A [1] worked out at 74.15%; at GSK3B [2], 35.38%; at PLK2 [3], 88.95%. The remaining activity at 1 µM at CSNK1E came to 103%.

In the case of `O=C(O)c1ccc(-c2[nH]c3cc(F)cc4c3c2CCNC4=O)cc1` [M324], the EC50 (as a rule, the concentration giving half of the maximal effect) in test [4] was 15000 nM; in test [7] it was 5080 nM. The values for the IC50 on GSK3B [5], on PLK2 [6] and at GSK3A [8] were 2000 nM, 591 nM and 579 nM, respectively. In addition, the inhibition at 10 µM on PARP1 and at PARP2 was 100% each time. For the same compound, the remaining activity at 1 µM on CSNK1E is 102%; at GSK3A [9] it was 34.4%; at GSK3B [10], 63.1%; on PLK2 [11], 40.7%.

For the origin of these results see publication doi:10.1101/2022.11.22.517505v1 (biorxiv, 2022).
